Results on twelve compounds are retold here after PMC10052977, “α,ω-Diacyl-Substituted Analogues of Natural and Unnatural Polyamines: Identification of Potent Bactericides That Selectively Target Bacterial Membranes” (International Journal of Molecular Sciences, 2023).

Structures are written as SMILES. In brackets after ≈: the same amount, converted by molar mass.

Series [1] has as its system Staphylococcus aureus ATCC 25923 or ATCC 29213. The experiment in a line: MIC, broth dilution (CA-SFM). In kind it is cell-based. Particulars: Staphylococcus aureus ATCC 25923 or ATCC 29213; mean (n = 3); read-out: MIC S. a. On the technique in general: Broth dilution looks for growth in wells or tubes with falling amounts of substance.
For another series, the system named is MRSA ATCC 43300. The experiment in a line: MIC, CO-ADD broth microdilution. Format: cell-based, Staphylococcus aureus. To be noted: for MIC: Staphylococcus aureus, MRSA ATCC 43300, mean (n = 2), read-out: MIC MRSA.
Series [2] has as its system Escherichia coli ATCC 25922. Briefly: MIC, CO-ADD broth microdilution. In kind it is cell-based. To be noted: ATCC25922, mean (n = 2).
For series [3], the system named is Pseudomonas aeruginosa PAO1 or ATCC 27853. Briefly: MIC, broth dilution (CA-SFM). Format: cell-based. Particulars: mean (n = 3).
The test system of series [4] is Klebsiella pneumoniae ATCC700603. The experiment in a line: MIC, CO-ADD broth microdilution. Format: cell-based. To be noted: mean (n = 2).
For series [5], the system named is Acinetobacter baumannii ATCC19606. The experiment in a line: MIC, CO-ADD broth microdilution. In kind it is cell-based. Particulars: mean (n = 2).
Series [6] concerns Candida albicans ATCC90028. The experiment in a line: Antifungal MIC, CO-ADD. Particulars: mean (n = 2). Format: cell-based. The essentials: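 Yeast from 3-day YPD cultures was diluted in YNB broth to a final 2.5 × 10^3 CFU/mL and incubated at 35 °C for 36 h without shaking. C. albicans MICs were read by OD530 absorbance. QC used fluconazole and Z'-factor controls.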
Series [7] relates to Cryptococcus neoformans ATCC208821. Briefly: Antifungal MIC, CO-ADD. Format: cell-based. Particulars: ATCC208821, Cryptococcus neoformans ATCC208821, mean (n = 2). The essentials:
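Fungal strains were grown on YPD agar at 30 °C for 3 days. Five colonies were used to make a yeast suspension of 1 × 10^6 to 5 × 10^6 CFU/mL, which was diluted in yeast nitrogen base (YNB) broth to 2.5 × 10^3 CFU/mL. Covered plates were incubated without shaking at 35 °C for 36 h. Fluconazole was the positive control, and quality was judged from antimicrobial controls and the Z'-factor.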

A short description of series [8]: Cytotoxicity assay (resazurin). Format: cell-based, human. Particulars: human; HEK293 cells; mean (n = 2); highest dose tested 32 μg/mL; read-out: Cytotoxicity (concentration of compound at 50% cytotoxicity, IC50).
The test system of the next series is human red blood cells. The experiment in a line: Hemolytic assay. Format: cell-based. Particulars: mean (n = 2). In a few lines: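 Washed human erythrocytes at 0.5 × 10^8 cells/mL in 0.9% NaCl, shaken 10 min with compound, then held 1 h at 37 °C. Released hemoglobin in supernatant after centrifugation read at OD405; HC10 and HC50 from variable-slope sigmoidal fit against log concentration.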

The subject of another series is P. aeruginosa ATCC27853. The experiment in a line: Doxycycline potentiation (MIC of antibiotic in presence of synergizing compound). Format: cell-based, Pseudomonas aeruginosa. To be noted: doxycycline 2 μg/mL, P. aeruginosa ATCC 27853.

Compound `Cl.Cl.S=C(NCCCNCCCCCCCNCCCNC(=S)NC(c1ccccc1)c1ccccc1)NC(c1ccccc1)c1ccccc1` [Compound 6c, N^1,N^7-Bis(3-(3-benzhydrylthioureido)propyl)heptane-1,7-diaminium chloride] had a melting point of 115 to 116 °C. The MIC in series [1] turned out to be 65 µM. Also, the minimal inhibitory concentration (MIC) in the series on MRSA ATCC 43300 was no more than 0.33 µM. This compound returned an MIC in [2] of no more than 0.33 µM. For the same compound, the MIC in series [3] was greater than 260 µM. The compound also showed a minimum inhibitory concentration (MIC) in series [4] greater than 41.7 µM. The compound further yielded a minimal inhibitory concentration (MIC) in series [5] of 2.6 µM. In [6], this compound came in with a minimal inhibitory concentration (MIC) of no more than 0.33 µM. For the same compound, the minimum inhibitory concentration (MIC) in series [7] worked out at 0.65 µM. The IC50 at 20 h in series [8] is greater than 41.7 µM. Besides, in the series on human red blood cells, the “Hemolysis (HC10, concentration at 10% hemolytic activity)” value is no more than 0.326 µM.

`Cl.Cl.S=C(NCCCNCCCCNCCCNC(=S)NC(c1ccccc1)c1ccccc1)NC(c1ccccc1)c1ccccc1` [Compound 6a, N^1,N^4-Bis(3-(3-benzhydrylthioureido)propyl)butane-1,4-diaminium chloride]: the melting point lay within 168 to 169 °C. In [1], the MIC is greater than 276 µM. For the same compound, the MIC with MRSA ATCC 43300 was no more than 0.34 µM. Besides, the MIC in [2] is 2.8 µM. The compound also showed a minimum inhibitory concentration (MIC) in series [3] of 138 µM. The same compound came in with a minimal inhibitory concentration (MIC) in [4] greater than 44.1 µM. In [5] (18 h), this compound registered an MIC of no more than 0.35 µM. The compound further registered an MIC in series [6] of no more than 0.34 µM. The same compound came in with an MIC in series [7] of 11 µM. Also, the IC50 at 20 h in [8] is greater than 44.1 µM. Moreover, the “Hemolysis (HC10, concentration at 10% hemolytic activity)” value in the series with human red blood cells came out at 7.73 µM.

The compound `O=C(O)CCC(=O)NCCCc1ccccc1` [Compound 8, 4-oxo-4-((3-phenylpropyl)amino)butanoic acid] yielded a melting point of 94 to 95 °C.

Take `Cl.Cl.S=C(NCCCNCCCCCCCCNCCCNC(=S)NC(c1ccccc1)c1ccccc1)NC(c1ccccc1)c1ccccc1` [Compound 6d, N^1,N^8-Bis(3-(3-benzhydrylthioureido)propyl)octane-1,8-diaminium chloride]: the melting point fell in the range of 113 to 115 °C. For the same compound, the MIC in series [1] came to 6.25 µM. In addition, in the series on MRSA ATCC 43300, the minimum inhibitory concentration (MIC) was no more than 0.32 µM. In series [2], this compound had a minimal inhibitory concentration (MIC) of no more than 0.32 µM. Further, in series [3], the MIC worked out at 100 µM. The compound further displayed an MIC in series [4] of 40.9 µM. Further, the MIC in series [5] was found to be 5.1 µM. The compound further yielded an MIC in [6] of no more than 0.32 µM. The compound also gave a minimal inhibitory concentration (MIC) in series [7] of 20.5 µM. In series [8], the IC50 at 20 h stood at 10.1 µM. In the series on human red blood cells, the “Hemolysis (HC10, concentration at 10% hemolytic activity)” value was 2.07 µM.

As to `O=C(CCC(=O)NCCC(c1ccccc1)c1ccccc1)NCCCNCCCCNCCCNC(=O)CCC(=O)NCCC(c1ccccc1)c1ccccc1.O=C(O)C(F)(F)F.O=C(O)C(F)(F)F` [Compound 16a, N^1,N^4-Bis(3-(4-((3,3-diphenylpropyl)amino)-4-oxobutanamido)propyl)butane-1,4-diaminium 2,2,2-trifluoroacetate], the minimal inhibitory concentration (MIC) in [1] was 25 µM; in the series with MRSA ATCC 43300, no more than 0.25 µM; in [2], greater than 31.5 µM; in series [3] (18 h), 20 µM; in [4] it was greater than 31.5 µM; in series [5], greater than 31.5 µM. Further, the MIC was greater than 31.5 µM in series [6] and no more than 0.28 µM in series [7]. Also, the IC50 at 20 h in series [8] is greater than 31.5 µM. Further, the “Hemolysis (HC10, concentration at 10% hemolytic activity)” value in the series with human red blood cells was greater than 31.5 µM. The “fold increase (antibiotic enhancement vs intrinsic MIC)” value in the series with P. aeruginosa ATCC27853 was found to be 8 fold.

Take `O=C(CC(c1ccccc1)c1ccccc1)NCCCNCCCCNCCCNC(=O)CC(c1ccccc1)c1ccccc1.O=C(O)C(F)(F)F.O=C(O)C(F)(F)F` [Compound 15a, N^1,N^4-Bis(3-(3,3-diphenylpropanamido)propyl)butane-1,4-diaminium 2,2,2-trifluoroacetate]: the MIC in series [1] was 6.25 µM; in the series on MRSA ATCC 43300 it was no more than 0.3 µM; in [2], no more than 0.3 µM; in [3], 50 µM; in series [4], greater than 37.8 µM; in series [5], greater than 37.8 µM. In addition, the MIC in [6] and in [7] was greater than 37.8 µM in each case. Further, the IC50 at 20 h in series [8] is greater than 37.8 µM. In addition, in the series on human red blood cells, the “Hemolysis (HC10, concentration at 10% hemolytic activity)” value is greater than 37.8 µM. In addition, the “fold increase (antibiotic enhancement vs intrinsic MIC)” value in the series with P. aeruginosa ATCC27853 amounted to 4 fold.

For the compound `O=C(NCCCNCCCCCCCCNCCCNC(=O)C(c1ccccc1)(c1ccccc1)c1ccccc1)C(c1ccccc1)(c1ccccc1)c1ccccc1.O=C(O)C(F)(F)F.O=C(O)C(F)(F)F` [Compound 17d, N^1,N^8-Bis(3-(2,2,2-triphenylacetamido)propyl)octane-1,8-diaminium 2,2,2-trifluoroacetate], the MIC was 6.25 µM in series [1]; less than 0.24 µM in the series with MRSA ATCC 43300; 15.6 µM in series [2]; 300 µM in [3]; greater than 31.2 µM in series [4]; 7.79 µM in series [5]. The minimal inhibitory concentration (MIC) in series [6] is 15.6 µM; in series [7], less than 0.24 µM. In series [8], the IC50 at 20 h is no more than 0.243 µM. Moreover, the “Hemolysis (HC10, concentration at 10% hemolytic activity)” value in the series with human red blood cells was determined as 0.719 µM.

In the case of `O=C(O)CCC(=O)NCCC(c1ccccc1)c1ccccc1` [Compound 10, 4-((3,3-diphenylpropyl)amino)-4-oxobutanoic acid], the melting point is 134 to 137 °C.

With `O=C(CC(c1ccccc1)c1ccccc1)NCCCNCCCCCCNCCCNC(=O)CC(c1ccccc1)c1ccccc1.O=C(O)C(F)(F)F.O=C(O)C(F)(F)F` [Compound 15b, N^1,N^6-Bis(3-(3,3-diphenylpropanamido)propyl)hexane-1,6-diaminium 2,2,2-trifluoroacetate], the MIC in [1] is 12.5 µM; in the series on MRSA ATCC 43300, no more than 0.29 µM; in series [2], 4.6 µM; in series [3], 100 µM; in series [4], greater than 36.6 µM; in series [5], greater than 36.6 µM. For the same compound, the minimal inhibitory concentration (MIC) in [6] and in [7] was greater than 36.6 µM in each case. In [8], the IC50 at 20 h was greater than 36.6 µM. In addition, the “Hemolysis (HC10, concentration at 10% hemolytic activity)” value in the series with human red blood cells was greater than 36.6 µM.

As for `O=C(CCC(=O)NCCCc1ccccc1)NCCCNCCCCCCCCCCNCCCNC(=O)CCC(=O)NCCCc1ccccc1.O=C(O)C(F)(F)F.O=C(O)C(F)(F)F` [Compound 14e, N^1,N^10-Bis(3-(4-oxo-4-((3-phenylpropyl)amino)butanamido)propyl)decane-1,10-diaminium 2,2,2-trifluoroacetate], the MIC in series [1] was 100 µM; in the series with MRSA ATCC 43300, 4.21 µM; in [2], 33.7 µM; in series [3], greater than 200 µM; in [4], greater than 33.7 µM; in [5] it was greater than 33.7 µM. Besides, the values for the minimum inhibitory concentration (MIC) in series [6] and in series [7] were greater than 33.7 µM and 33.7 µM, respectively. In addition, the “activity towards MRSA” value in the series with MRSA ATCC 43300 (MRSA) is recorded as “weak”. Also, the IC50 at 20 h in [8] is greater than 33.7 µM. Also, the “Hemolysis (HC10, concentration at 10% hemolytic activity)” value in the series on human red blood cells was greater than 33.7 µM.

As for `O=C(CCC(=O)NCCC(c1ccccc1)c1ccccc1)NCCCNCCCCCCNCCCNC(=O)CCC(=O)NCCC(c1ccccc1)c1ccccc1` [Compound 16b, N^1,N^6-Bis(3-(4-((3,3-diphenylpropyl)amino)-4-oxobutanamido)propyl)hexane-1,6-diaminium 2,2,2-trifluroracetate], the minimal inhibitory concentration (MIC) is 24 µM (≈ 19.6 µg/mL) in series [1]; no more than 0.24 µM with MRSA ATCC 43300; greater than 30.6 µM in series [2]; 480 µM (≈ 392 µg/mL) in [3]; greater than 30.6 µM in [4]; greater than 30.6 µM in series [5]. In addition, the MIC in [6] and in series [7] was greater than 30.6 µM throughout. The IC50 at 20 h in [8] was greater than 30.6 µM. Moreover, the “Hemolysis (HC10, concentration at 10% hemolytic activity)” value with human red blood cells was greater than 30.6 µM.

In the case of `Cl.Cl.S=C(NCCCNCCCCCCCCCCCCNCCCNC(=S)NC(c1ccccc1)c1ccccc1)NC(c1ccccc1)c1ccccc1` [Compound 6f, N^1,N^12-Bis(3-(3-benzhydrylthioureido)propyl)dodecane-1,12-diaminium chloride], the melting point lay within 103 to 104 °C. For the same compound, the MIC in [1] was greater than 239 µM. Further, in the series on MRSA ATCC 43300, the minimal inhibitory concentration (MIC) is no more than 0.3 µM. The MIC in series [2] turned out to be 2.4 µM. In addition, the MIC in series [3] was 120 µM. Besides, in series [4], the MIC is greater than 38.2 µM. Moreover, the MIC in series [5] is greater than 38.2 µM. Further, the minimum inhibitory concentration (MIC) in series [6] is no more than 0.3 µM. Moreover, the MIC in series [7] was greater than 38.2 µM. Moreover, the IC50 at 20 h in [8] was no more than 0.298 µM. The “Hemolysis (HC10, concentration at 10% hemolytic activity)” value in the series with human red blood cells was greater than 38.2 µM.

The term MIC denotes the smallest concentration in the dilution series that meets the test's criterion for growth inhibition. As a reminder, the melting point is the temperature, or range, at which the solid turns liquid.
